Legend:
S. aureus Newman [1] = experiment: fitness (endpoint OD595 vs no drug) (fraction); higher = more growth
Summary of the method: (§1)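 With the first reading as background, OD595 was measured every 30 min for 14 h in 384-well plates kept at 37 °C and inoculated at OD595 0.01. TSB, LB Lennox or CY was the medium. Fitness is the optical density at the transition into stationary phase divided by the robust mean of no-drug control wells, with a cap of 1.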

S. pneumoniae D39V [2] = experiment: as above
Summary of the method: as §1

S. aureus DSM 20231 [3] = experiment: as above
Summary of the method: as §1

B. subtilis 168 = experiment: Bliss interaction score (quartile over a dose matrix) (fitness difference); higher = more antagonism (negative = synergy)
Summary of the method: (§2)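 Values were capped at 1 after dividing OD595 at stationary-phase entry by the plate's robust no-drug mean. This ratio is fitness, and single-drug fitness was inferred from the combination data. The Bliss score is observed minus product-expected fitness, given as quartiles over technical, biological and donor/recipient replicates.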

S. aureus Newman [4] = experiment: as above
Summary of the method: as §2

S. pneumoniae D39V [5] = experiment: as above
Summary of the method: as §2

S. aureus DSM 20231 [6] = experiment: as above
Summary of the method: as §2
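For Bliss interaction score (quartile over a dose matrix) in this document: first quartile when negative (synergy) and third quartile when positive (antagonism).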

CC1(C)S[C@@H]2[C@H](NC(=O)[C@H](N)c3ccc(O)cc3)C(=O)N2[C@H]1C(=O)O [Amoxicillin] + CC1=C\[C@@H](O)CC(=O)Cc2nc(co2)C(=O)N2CCC=C2C(=O)O[C@H](C(C)C)[C@H](C)/C=C/C(=O)NC\C=C\1 [Virginiamycin M1]
Details | fitness
S. aureus DSM 20231 [3], first compound 0.0625 µg/mL, partner 0.0625 µg/mL | 0.48
S. aureus DSM 20231 [3], first compound 0.0625 µg/mL, partner 0.125 µg/mL | 0.488
S. aureus DSM 20231 [3], first compound 0.0625 µg/mL, partner 0.25 µg/mL | 0.504
S. aureus DSM 20231 [3], first compound 0.125 µg/mL, partner 0.0625 µg/mL | 0.329
S. aureus DSM 20231 [3], first compound 0.25 µg/mL, partner 0.125 µg/mL | 0.0421
S. aureus DSM 20231 [3], first compound 0.25 µg/mL, partner 0.25 µg/mL | 0.0398
S. aureus Newman [1], first compound 0.0625 µg/mL, partner 0.0625 µg/mL | 0.935
S. aureus Newman [1], first compound 0.0625 µg/mL, partner 0.125 µg/mL | 0.893
S. aureus Newman [1], first compound 0.0625 µg/mL, partner 0.25 µg/mL | 0.906
S. aureus Newman [1], first compound 0.125 µg/mL, partner 0.0625 µg/mL | 0.883
S. aureus Newman [1], first compound 0.125 µg/mL, partner 0.125 µg/mL | 0.948
S. aureus Newman [1], first compound 0.125 µg/mL, partner 0.25 µg/mL | 0.945
S. aureus Newman [1], first compound 0.25 µg/mL, partner 0.0625 µg/mL | 0.867
S. aureus Newman [1], first compound 0.25 µg/mL, partner 0.125 µg/mL | 0.921
S. aureus Newman [1], first compound 0.25 µg/mL, partner 0.25 µg/mL | 0.886
S. pneumoniae D39V [2], first compound 0.0008 µg/mL, partner 0.5 µg/mL | 0.988
S. pneumoniae D39V [2], first compound 0.0008 µg/mL, partner 1 µg/mL | ≥ 1
S. pneumoniae D39V [2], first compound 0.0008 µg/mL, partner 2 µg/mL | 0.937
S. pneumoniae D39V [2], first compound 0.0015 µg/mL, partner 0.5 µg/mL | 0.978
S. pneumoniae D39V [2], first compound 0.0015 µg/mL, partner 1 µg/mL | 0.965
S. pneumoniae D39V [2], first compound 0.0015 µg/mL, partner 2 µg/mL | 0.95
S. pneumoniae D39V [2], first compound 0.003 µg/mL, partner 0.5 µg/mL | 0.926
S. pneumoniae D39V [2], first compound 0.003 µg/mL, partner 1 µg/mL | 0.956
S. pneumoniae D39V [2], first compound 0.003 µg/mL, partner 2 µg/mL | 0.914

one replicate
Details | fitness
S. aureus DSM 20231 [3], first compound 0.0625 µg/mL, partner 0.5 µg/mL | 0.541
S. aureus DSM 20231 [3], first compound 0.0625 µg/mL, partner 1 µg/mL | 0.699
S. aureus DSM 20231 [3], first compound 0.125 µg/mL, partner 0.5 µg/mL | 0.444
S. aureus DSM 20231 [3], first compound 0.125 µg/mL, partner 1 µg/mL | 0.497
S. aureus DSM 20231 [3], first compound 0.25 µg/mL, partner 0.5 µg/mL | 0.0437
S. aureus DSM 20231 [3], first compound 0.25 µg/mL, partner 1 µg/mL | 0.108
S. aureus DSM 20231 [3], first compound 0.5 µg/mL, partner 0.0625 µg/mL | 0.0149
S. aureus DSM 20231 [3], first compound 0.5 µg/mL, partner 0.125 µg/mL | 0.0318
S. aureus DSM 20231 [3], first compound 0.5 µg/mL, partner 0.25 µg/mL | 0.0127
S. aureus Newman [1], first compound 0.125 µg/mL, partner 0.5 µg/mL | 0.81
S. aureus Newman [1], first compound 0.125 µg/mL, partner 1 µg/mL | ≥ 1
S. aureus Newman [1], first compound 0.125 µg/mL, partner 2 µg/mL | 0.845
S. aureus Newman [1], first compound 0.25 µg/mL, partner 0.5 µg/mL | 0.813
S. aureus Newman [1], first compound 0.25 µg/mL, partner 1 µg/mL | 0.865
S. aureus Newman [1], first compound 0.25 µg/mL, partner 2 µg/mL | 0.754
S. aureus Newman [1], first compound 0.5 µg/mL, partner 0.5 µg/mL | 0.74
S. aureus Newman [1], first compound 0.5 µg/mL, partner 1 µg/mL | 0.828
S. aureus Newman [1], first compound 0.5 µg/mL, partner 2 µg/mL | 0.732
S. pneumoniae D39V [2], first compound 0.0008 µg/mL, partner 0.15 µg/mL | 0.996
S. pneumoniae D39V [2], first compound 0.0008 µg/mL, partner 0.3 µg/mL | 0.892
S. pneumoniae D39V [2], first compound 0.0015 µg/mL, partner 0.15 µg/mL | 0.948
S. pneumoniae D39V [2], first compound 0.0015 µg/mL, partner 0.3 µg/mL | 0.9
S. pneumoniae D39V [2], first compound 0.003 µg/mL, partner 0.15 µg/mL | 0.951
S. pneumoniae D39V [2], first compound 0.003 µg/mL, partner 0.3 µg/mL | 0.906
S. pneumoniae D39V [2], first compound 0.006 µg/mL, partner 0.5 µg/mL | 0.447
S. pneumoniae D39V [2], first compound 0.006 µg/mL, partner 1 µg/mL | 0.474
S. pneumoniae D39V [2], first compound 0.006 µg/mL, partner 2 µg/mL | 0.46

Details | Bliss interaction score
B. subtilis 168 | -0.0567
S. aureus DSM 20231 [6] | -0.0553
S. aureus Newman [4] | 0.0682
S. pneumoniae D39V [5] | -0.0459

— the supplement of paper PMC10627819
